Assays:
[1] = test system: uterine weight associated with rat deciduoma formation; test: Test Example 5: antiprogesterone activity, uterine weight associated with rat deciduoma formation in ovariectomized rats; format: in vivo; details: 192 h, 8 days, read-out: inhibition rate of uterine weight increase (antiprogesterone action)
Protocol: For the compound A and the compound D (mifepristone), the antiprogesterone activity was measured. Specifically, a sex hormone and a test substance were repeatedly administered to ovariectomized rats as a test system to examine the antiprogesterone action (antiprogesterone activity) based on, as an index, the fluctuation of the uterine weight (the inhibitory action relative to the increase of the weight) associated with rat deciduoma formation.
More specifically, rats (female, Crl:CD(SD), 5-week-old: Charles River Laboratories Japan, Inc.) were subjected to ovariectomy, and from one (1) week after the ovariectomy, a high dose estrone or 5 μg/one animal was hypodermically administered to the rats once a day for three (3) days. From the day after one day rest period, the rats received, once a day over eight (8) days, hypodermic administration of a low dose estrone (1 μg/one animal), intramuscular administration of progesterone (6 mg/kg), and oral administration of a test substance. In the middle of the administration, on Day 4 of the start of administration, the rats were subjected to a stimulation treatment of decidualization reaction to the right uterus. The day after the final administration, the uterine weight (right uterine body) was measured (n=6). Group E was subjected to ovariectomy and a stimulation treatment of decidualization reaction but was not subjected to a hormone treatment.
The test substances and the dosage in the test system (ovariectomized rats) are as follows. • Group E: rats with ovariectomy without hormone treatment • 0.5 v/v % Polysorbate 80 solution, 10 mL/kg (n=6) • Solvent group (control group): 0.5 v/v % Polysorbate 80 solution, 10 mL/kg (n=6) • Group A3: Compound A, 3 mg/kg (n=6) • Group A10: Compound A, 10 mg/kg (n=6) • Group A30: Compound A, 30 mg/kg (n=6) • Group D: Compound D (mifepristone), 3 mg/kg (n=6)

[2] = test system: lower urinary tract obstruction model of rats; test: Test Example 1: urination function in female rat lower urinary tract obstruction model (cystometry, tissue wet weights, survival); format: in vivo; details: Group A: 10 mg/kg oral once a day, 2 weeks
Description: A lower urinary tract obstruction model of rats was used as a test system. A test substance was orally administered to the lower urinary tract obstruction model repeatedly over two (2) weeks to examine the action on the urination function in the lower urinary tract obstruction model.
More specifically, the rats (female, Crl:CD(SD), 8-week-old; Charles River Laboratories Japan, Inc.) were operated to form lower urinary tract obstruction and repeatedly received oral administration of the test substance at a frequency of once a day over two (2) weeks. After the completion of the administration, each rat was subjected to bladder catheterization under anesthesia, cystometry under no anesthesia, then cystometry under urethane anesthesia, and euthanasia under deep anesthesia, and the tissues (bladder, kidney) of the rat were extracted or surgically removed. As a normal group, the rats without operation for forming lower urinary tract obstruction were used.
The test system, the test substances, and the dosage are as follows. • Normal group: 0.5 v/v. Polysorbate 80 solution, 10 mL/kg (n=6) • Solvent group (control group): 0.5 v/v % Polysorbate 80 solution, 10 mL/kg (n=15) • Group A: Compound A, 10 mg/kg (n=15) • Group B3: Compound B, 3 mg/kg (n=7) • Group B10: Compound B, 10 mg/kg (n=7)
The residual urine volume, the urination efficiency, and the bladder capacity were measured as follows.
After urination, the residual urine was aspirated from the outlet end of the catheter placed in the bladder to measure the volume (mL) of the residual urine.
After urination, the weight of the voided urine was measured to determine the voided volume (g=mL), and then the urination efficiency was calculated by the following equation: Urination efficiency (%)=[(Voided volume (mL))/(Voided volume (mL)+Residual urine volume (mL))]×100 [Bladder Capacity]
The bladder capacity was calculated from the voided volume and the residual urine volume by the following equation: Bladder capacity(mL)=Voided volume (mL)+Residual urine volume (mL)
Moreover, the wet weight of the extracted bladder and that of the extracted kidney were measured.

bladder specimen = test: Test Example 3: isometric contraction test of bladder specimen from high-week-old male rats after repeated oral dosing; format: in vivo, rat; details: Group A: 10 mg/kg oral once a day, 2 weeks; compared with Group C (dutasteride 0.3 mg/kg); FIG. 9, 10
Description: High-week-old male rats (22-week-old; Charles River Laboratories Japan, Inc.) were examined and evaluated for the relationship between the test substances and the bladder and urethra contraction reaction. Since the rats are high-week-old, the rats are a model in which the prostate is predicted to be enlarged.
A test substance was orally administered to the high-week-old male rats repeatedly at a frequency of once a day over two (2) weeks, and then, from each rat, a bladder specimen was extracted. The bladder specimen was suspended at a resting tension of about 9.8 mN in a constant-temperature Magnus tube (37° C.) filled with a physiological salt solution aerated with 95% O2-5% CO2 gas and was subjected to an isometric contraction test by applying a square-wave electrical field stimulation (EFS, Amplitude; 0.3 ms, Frequency; 1, 2, 5, 10, 20 Hz, Duration; 5 s); or Carbachol (CCH, 100 nmol/L to 100 μmol/L) and KCl (40, 80 mmol/L).
Solvent group (control group): 0.5 v/v % Polysorbate 80 solution, 10 mL/kg (n=6) • Group A: Compound A, 10 mg/kg (n=6) • Group C: Compound C (dutasteride), 0.3 mg/kg (n=6)

Which results are given for `CC(=O)O[C@]1(C(C)=O)C[C@@H](O)[C@H]2[C@@H]3C=C(Cl)C4=CC(=O)OC[C@]4(C)[C@H]3CC[C@@]21C` [Compound A, 17α-acetoxy-6-chloro-15β-hydroxy-2-oxa-4,6-pregnadiene-3,20-dione]?
inhibition at 3 mg/kg ([1]; Group A3: 3 mg/kg oral once a day, not significant): 15%; inhibition at 10 mg/kg ([1]; Group A10: 10 mg/kg oral once a day, significant): 63%; inhibition at 30 mg/kg ([1]; Group A30: 30 mg/kg oral once a day, significant): 83.3%; bladder wet weight ([2]; FIG. 4): significantly inhibiting the increase; kidney wet weight ([2]; FIG. 5): significantly inhibiting the increase; survival rate ([2]; FIG. 6): no decrease; residual urine volume ([2]; vs control (solvent) group, FIG. 1): significantly decreased; urination efficiency ([2]; vs control group, FIG. 2): increased; bladder capacity ([2]; vs control group, FIG. 3): significantly decreased; bladder contraction tension caused by square-wave electrical field stimulation or Carbachol and KCl (bladder specimen): significantly strong or has a strong directionality
